Data taken from a melting point compilation (Tetko et al.; mined from patent text by program, amines drawn as free bases though some values may be those of a salt).

SMILES | melting point
CC1(C)CCC(C)(C)c2c(OCc3ccc(F)cc3)cc(C(=O)c3ccc4cc(C(=O)O)ccc4c3)cc21 | 277 °C
COc1ccc(C(O)Cc2c(Cl)cncc2Cl)cc1OC1CCCC1 (stereo not given) | 124 to 125 °C
N#Cc1ccc(C=CC(=O)C2CC2)cc1 | 104 °C
COc1cc(C(=O)O)ccc1-c1ccncc1 | 239 to 241 °C
Cn1ncc(C(=O)O)c1C(=O)Nc1ccn2nc(-c3cccnc3)nc2c1 | > 250 °C
Clc1cc2c(cc1Cn1ccnc1)OCO2 | 99 to 102 °C
CC(C)N1CNS(=O)(=O)c2sc(Cl)cc21 | 100 to 102 °C
CCCCNS(=O)(=O)c1cc(C(=O)OCC)cc(NCc2ccccc2)c1Oc1ccccc1 | 149 to 150 °C
C[C@@H](S[C@H]1CO[C@H](c2ccc(C(=O)NCc3ccc(C#N)cc3)cc2)OC1)[C@](O)(Cn1cncn1)c1ccc(F)cc1F | 188 °C
COc1cc(NCCCCCCO)c2nccc(C)c2c1 | 97 to 99 °C
O=C(CCl)N1CCC(Cc2ccc(Cl)cc2)CC1 | 70 °C
O=C(Nc1ccc(-n2nc(C(F)(F)F)cc2C2CC2)c(F)c1)c1c(Cl)cncc1Cl | 218 to 223 °C
COc1ccccc(Br)c1=O | 74 to 75 °C
CC(C)n1cc(-c2nc(C(=O)O)c(N)nc2-c2ccc(F)cc2)ccc1=O | 222 °C
O=C(NNC(=O)c1occ(-c2ccccc2)c1-c1ccccc1)c1ccc(O)c(I)c1 | 171 to 174 °C
COc1ccc(C=Cc2nc3c(OC)c(C)c(C)c(OC)c3[nH]2)cc1OC | 116 to 119 °C
Cn1c(C(F)(F)F)ccc(-c2c(F)cc(Cl)c3oc(CO)cc23)c1=O | 145 to 147 °C
CC(=O)OC(C)(C)C(=O)Nc1ccc(Sc2ccc(N)cc2)cc1Cl | 130 to 132 °C
O=C(Cl)c1ccc(OC(=O)c2cccc(C(=O)Oc3ccc(C(=O)Cl)cc3)c2)cc1 | 204 °C
CCCCc1nnc(SCC(=O)OC)n1Cc1ccc(NC(=O)c2ccccc2C(=O)O)cc1 | 161 to 162 °C

SMILES | melting point
Cc1ccccc1-n1c(C=Cc2ccccc2F)nc2cnccc2c1=O | 211 to 212 °C
COc1cnn([C@@H]2C[C@H](O)[C@@H](O)[C@H]2O)c(=O)c1Cl (racemic) | 166 to 168 °C
CN(C(=O)Nc1ccc(Cl)c(Cl)c1)C(Cl)C(Cl)(Cl)Cl (stereo not given) | 132 to 140 °C
CC(=O)Nc1c(C(=O)c2cccc(F)c2)[nH]c2cc(Cl)ccc12 | 201 to 202 °C
O=CCCNC(=O)CN1CCN(CC(=O)O)CCN(CC(=O)O)CCN(CC(=O)O)CC1 | 115 to 120 °C
O=C(Nc1ccccc1)O[C@@H]1CN2CCC1CC2 | 129 to 130 °C
Cc1c(C)c(N2CCN(c3ccc(C#N)cc3)CC2)c(C)c2c1OC(C)(C)C2 | 255 to 257 °C
CC1=N/C(=C\c2c[nH]c3ncccc23)C(=O)N1C(C)C | 207 °C
COC(=O)c1sc2c(c1N)c1ccccc1c(=O)n2-c1ccccc1Cl | 244 to 246 °C
Cc1cc(N=CN(C)C)c(C)cc1O | 212 °C
OC(Cc1cnc(-c2c(F)cccc2F)nn1)c1ccc(Cl)cc1 (stereo not given) | 98 to 102 °C
ClCCOc1ccc(/C=C/c2nc3ccccc3s2)cc1 | 92 to 94 °C
CCc1c(OC)cc(C2CNC(=O)C2)cc1OC (stereo not given) | 156 °C
COc1cc([N+](=O)[O-])c(N)cc1OC(F)F | 144 to 145 °C
Cc1[nH]c(-c2ccc(F)cc2)c(N)c1C(=O)c1ccccc1 | 209 to 210 °C
CC(Oc1ccc2nc(NC(=O)CCCN3CCOCC3)sc2c1)c1c(Cl)ccc(F)c1Cl (stereo not given) | 141 to 145 °C
Cc1nc2ncnn2c(O)c1CCCOCC(C)(C)C | 155 to 159 °C
CCc1cccc2nc3c(=O)[nH][nH]c(=O)c3c(O)c12 | > 400 °C
CCCCCCOc1ccc(S(=O)(=O)N(CC(=O)NO)CC(C)C)cc1 | 108 to 110 °C
Cc1nn(C)c(CBr)c1Oc1cc(Cl)cc(C#N)c1 | 76 to 78 °C

SMILES | melting point
CCCCN(CCCC)C(=O)On1c(-c2ccccc2)nc2c3ccc4ccccc4c3ccc21 | 120 °C
COc1ccc(C2(c3cccc(C)n3)OCCCO2)cc1OC | 124 to 126 °C
COC(=O)COc1ncccc1[N+](=O)[O-] | 61.5 °C
COc1ccc(C(=O)O)cc1NC(=O)C(CSC(C)=O)Cc1ccccc1 (stereo not given) | 172 to 175 °C
NCCOc1ccc(CC2SC(=O)NC2=O)cc1 (stereo not given) | 175 to 176 °C
COCC(=O)C1CCC2C3CCC4CC(=O)CCC4(C)C3CCC12C (stereo not given) | 156 °C
Clc1ccc2c(c1)NC(c1ccncc1)c1cc(Cl)ccc1O2 (stereo not given) | 202 to 205 °C
CCOCCOc1ccc2c(c1)C(CNS(=O)(=O)CC)CC(C)(C)O2 (stereo not given) | 70 to 72 °C
O=C(c1ccc(Cl)cc1)P1(=O)Oc2ccccc2-c2ccccc21 (stereo not given) | 125 to 131 °C
[N-]=[N+]=Nc1ccc(S(=O)(=O)NCCc2ccc(CCO)cc2)cc1 | 80 to 82 °C
Nc1c(Cl)c(F)nc(F)c1Cl | 110 °C
CC1(COc2ccc(N3CCC(Oc4ccc(OC(F)(F)F)cc4)CC3)cc2)Cn2cc([N+](=O)[O-])nc2O1 (stereo not given) | 165 to 166 °C
CCn1c(N)c(C(N)=O)c(=O)c2cnc(Nc3cccc(N4CCOCC4)c3)nc21 | 195 °C
CSCC[C@H](NC(=O)Cc1cc(F)cc(F)c1)C(=O)N[C@@H]1C(=O)Nc2ccccc2S[C@@H]1c1ccccc1 | 85 to 90 °C
CCCc1c(OCCCS(=O)(=O)c2ccc(C(=O)CCC(=O)O)c(F)c2)ccc(C(C)=O)c1O | 116 to 118 °C
Cc1nc(N2CCCC(Cc3ccccc3)C2=O)sc1C(=O)NCc1ccccc1 (stereo not given) | 162 to 164 °C
COc1cc2c(-c3ccc(Cl)cc3)csc2c(Cl)c1Cl | 190 to 191 °C
S=C1CCNc2ccccc2N1 | 154 to 157 °C
CONC(=O)Cc1c(C)n(C(=O)c2ccc(Cl)cc2)c2ccc(OC)cc12 | 184 to 185 °C

The remaining lines, values ahead:

melting point | SMILES
65 to 66 °C | COc1cccc(Cc2cnc(-c3ccccc3)c(-c3ccccc3)n2)c1
136 to 138 °C | Fc1cccc(F)c1C1=NC(c2ccccc2Br)CCS1 (stereo not given)
135 to 138 °C | Cn1cc(-c2cccc(C(F)(F)F)c2)c(=O)c(-c2ccccc2C(F)(F)F)c1
165 to 166 °C | CC(C)(C)OC(=O)N1CCN(C(=O)Oc2ccc(Oc3ccc(C(F)(F)F)cn3)cc2)CC1
297 to 300 °C | CS(=O)(=O)c1[nH]nc(-c2ccc(F)cc2)c1-c1ccncc1
184 to 186 °C | CCOC(=O)C(=CN(C)C)C(=O)c1cc(F)c(N2CCC(NC(C)=O)C2)nc1Nc1ccc(F)cc1F (stereo not given)
76 to 82 °C | Cc1cccc2c1C(=O)C(COC(=O)Nc1ccccc1)(COC(=O)Nc1ccccc1)CS2=O (stereo not given)
115 °C | CSc1c(N)nc(N2CCOCC2)nc1Cl
245 °C | Brc1ccc(-c2c(-c3ccccc3)c(-c3ccccc3)c(-c3ccccc3)c(-c3ccccc3)c2-c2ccc(Br)cc2)cc1
190 to 194 °C | CS(=O)(=O)c1cc(C(=O)O)cc([N+](=O)[O-])c1Cl
101 to 102 °C | FC(F)Oc1ccc(C=Cc2nc(CNc3ccc(CCCCn4ccnn4)cc3)co2)cc1
178 to 185 °C | CS(=O)c1ccc2c3c(cccc13)C(=O)N2 (stereo not given)
213 to 215 °C | C[C@H](CSc1nc2ccccc2[nH]1)Nc1nc(Cl)nc2c1ncn2[C@@H]1O[C@H](CO)[C@@H](O)[C@H]1O
236 to 240 °C | O=C1Cc2cc(NC(=O)C(=O)N3CCC(CCc4ccccc4)CC3)ccc2N1
223 to 225 °C | Oc1cccnc1C=NNc1ccc(F)cc1
248 to 250 °C | CC(=O)CC(=O)Nc1nc2ccc(NC(C)=O)cc2s1
112 °C | CN(C)C(=S)Oc1ccccc1C#N
93.5 to 95 °C | Cc1noc(C)c1C(C)(O)c1ccsc1 (stereo not given)
113 to 115 °C | CCOC(=O)c1cnc2c(C)csc2c1Cl
137 to 138 °C | COc1cc2[nH]c(SCc3nccc(OC)c3OC)nc2cc1OC(F)F
153 to 155 °C | Cc1c(C#N)sc2nc(CCc3ccccc3)nc(NC3CCC3)c12

melting point | SMILES
190 to 192 °C | CCCCC(=O)Nc1cccc2c1C(=O)N(C1(C)CCC(=O)NC1=O)C2=O (stereo not given)
206 to 207 °C | CC(=O)NCc1cccc(Nc2nccc(-c3sc(C)nc3C)n2)c1
235 to 237 °C | COc1ccc(N2CCOCC2)c2sc(-c3nc(-c4ccc5c(c4)OCCO5)c[nH]3)nc12
120 to 122 °C | CC1CCC(N2c3ccccc3Oc3c(Cl)cccc32)=N1 (stereo not given)
132 °C | COc1ccc(-c2nnc(Cl)cc2C)cc1
166 °C | CCOC(=O)C1=C(C)NC(CN2C(=O)c3ccccc3C2=O)=C(C(=O)OCC)C1c1ccccc1Cl (stereo not given)
143 to 144 °C | CC(=O)NCCC1CCc2c(Cl)cc3nn(C)cc3c21 (stereo not given)
213 to 214 °C | O=C(Nc1cc(F)ccc1F)c1cc(-c2ccc(F)cc2F)ccc1O
316 to 317 °C | CNc1nc(N)nc2cc(-c3ccccc3S(=O)(=O)NC)ccc12
168 to 170 °C | OCCOCn1c(Cl)nc2c(Cl)c(Cl)c(Cl)c(Cl)c21
154 to 156 °C | Cc1ccc(NC(=O)c2cc(Cl)ccc2NCC2CCN(C3CCS(=O)(=O)CC3)CC2)nc1
96 to 97 °C | CCOP(=O)(/C=C/c1cn(-c2ccccc2)nc1OCc1ccc(OCc2coc(-c3ccco3)n2)c(OC)c1)OCC
75 to 77 °C | CC(=O)Oc1cc(Cl)ccc1C(=O)NCCO[N+](=O)[O-]
105 to 106 °C | COCCc1nnc(NC(=O)C2c3ccccc3Oc3ccccc32)o1
97 to 98 °C | CCCCCCN1c2ccc(OC)cc2C(C)(C)C12C=Cc1cc([N+](=O)[O-])cc(OC)c1S2 (stereo not given)
179 to 181 °C | CCCCCCC(C)NC1=NS(=O)(=O)c2sc(Cl)cc2N1 (stereo not given)
143 to 146 °C | CCc1cc2c(ccc(=O)n2Cc2ccc(C(=O)O)cc2)c(CC)n1
190 to 191 °C | CC(=O)Nc1ccc(S(=O)c2ccc(Br)cc2)cc1 (stereo not given)
196 to 199 °C | C#CCNC(=O)c1cccc(F)c1Nc1nc(Nc2ccc3c(c2)OCCCN3C(C)=O)ncc1Cl
111 °C | Cc1ccc2cc(-c3cccc4ccccc34)ccc2n1
